Measurements from patent US6737383B1, “Herbicidal oxadiazolidines” (priority 1999, dated 2004).

Experiments:
cocklebur = test: Test B pre/postemergence cocklebur; assay type: in vivo, Xanthium strumarium
Procedure, shortened: (§1)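 Response is a visual 0-to-10 score relative to untreated plants, where 0 means no effect and 10 means complete control, taken twelve to sixteen days after application. Treatments went onto soil at planting and onto foliage of 1- to 4-leaf plants, using a surfactant-containing non-phytotoxic solvent.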

rice = test: Test B flood test rice; assay type: in vivo, Oryza sativa
Procedure, shortened: (§2)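 Flood test on plants grown to the 2-leaf stage; treated plants kept in greenhouse twelve to sixteen days, then visually rated against controls on a 0 (no effect) to 10 (complete control) scale.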

smallflower flatsedge = test: Test B flood test smallflower flatsedge; assay type: in vivo, Cyperus difformis
Procedure, shortened: as §2

wild oat = test: Test B pre/postemergence wild oat; assay type: in vivo, Avena fatua; details: for Plant response rating, Wild oats: Rate 250 g/ha
Procedure, shortened: as §1

bedstraw = test: Test B pre/postemergence bedstraw; assay type: in vivo, Galium aparine
Procedure, shortened: as §1

sugar beet = test: Test B pre/postemergence sugar beet; assay type: in vivo, Beta vulgaris; details: for Plant response rating, Sugarbeets: Rate 250 g/ha
Procedure, shortened: as §1

wheat = test: Test B pre/postemergence wheat; assay type: in vivo, Triticum aestivum; details: for Plant response rating, Wheat: Rate 250 g/ha
Procedure, shortened: as §1

rape = test: Test B pre/postemergence rape; assay type: in vivo, Brassica napus
Procedure, shortened: as §1

surinam grass = test: Test B pre/postemergence surinam grass; assay type: in vivo, Brachiaria decumbens
Procedure, shortened: as §1

blackgrass = test: Test B pre/postemergence blackgrass; assay type: in vivo, Alopecurus myosuroides
Procedure, shortened: as §1

velvetleaf = test: Test B pre/postemergence velvetleaf; assay type: in vivo, Abutilon theophrasti; details: for Plant response rating, Velvetleaf: Rate 250 g/ha
Procedure, shortened: as §1

morningglory = test: Test B pre/postemergence morningglory; assay type: in vivo, Ipomoea hederacea
Procedure, shortened: as §1

pigweed = test: Test B pre/postemergence pigweed; assay type: in vivo, Amaranthus retroflexus
Procedure, shortened: as §1

giant foxtail = test: Test B pre/postemergence giant foxtail; assay type: in vivo, Setaria faberii
Procedure, shortened: as §1

corn = test: Test B pre/postemergence corn; assay type: in vivo, Zea mays
Procedure, shortened: as §1

soybean = test: Test B pre/postemergence soybean; assay type: in vivo, Glycine max
Procedure, shortened: as §1

[1] = Postemergence, Rate 125 g/ha, scale of 0 to 10 where 0 is no effect and 10 is complete control
[2] = Postemergence, Rate 250 g/ha, scale 0 to 10, 0 no effect, 10 complete control
[3] = Preemergence, Rate 125 g/ha, scale 0 to 10 (0 no effect, 10 complete control)
[4] = Preemergence, Rate 250 g/ha, scale of 0 to 10 where 0 is no effect and 10 is complete control
[5] = Preemergence, Rate 500 g/ha, scale 0 to 10 (0 no effect, 10 complete control)
[6] = Rate 62 g/ha, Postemergence, scale of 0 to 10 where 0 is no effect and 10 is complete control
[7] = Rate 500 g/ha, Postemergence, scale 0 to 10, 0 no effect, 10 complete control
[8] = Postemergence (flood test species), Rate 125 g/ha, scale of 0 to 10 where 0 is no effect and 10 is complete control
[9] = Rate 62 g/ha, Postemergence section, flood test species, scale of 0 to 10 where 0 is no effect and 10 is complete control
[10] = Rate 250 g/ha, Postemergence (flood test), scale 0 to 10, 0 is no effect, 10 is complete control
[11] = Rate 250 g/ha, headed Pre-emergence (flood test species), scale 0 to 10 (0 no effect, 10 complete control)
[12] = Rate 500 g/ha, headed Pre-emergence (flood test species), scale 0 to 10 (0 no effect, 10 complete control)
[13] = Rate 500 g/ha, listed under Postemergence (flood test species), scale 0 to 10, 0 no effect, 10 complete control
[14] = Rate 2000 g/ha, Pre-emergence (as headed), scale 0 to 10
[15] = Preemergence, Rate 62 g/ha, scale 0 to 10 (0 no effect, 10 complete control)
[16] = Preemergence, Rate 125 g/ha, 0 is no effect, 10 is complete control
[17] = Preemergence, scale of 0 to 10 where 0 is no effect and 10 is complete control
[18] = Postemergence, scale 0 to 10, 0 is no effect, 10 is complete control
[19] = Postemergence, Rate 62 g/ha, scale 0 to 10, 0 is no effect, 10 is complete control
[20] = Rate 125 g/ha, Postemergence, scale 0 to 10, 0 no effect, 10 complete control
[21] = Rate 250 g/ha, Postemergence, scale 0 to 10, 0 is no effect, 10 is complete control

## CCn1c(=O)on(C(=O)N(c2ccc(Cl)cc2)C(C)C)c1=O [Compound 108]
cocklebur; [1]
  Cocklebur plant response rating: 0
cocklebur; [2]
  Cocklebur plant response rating: 0
cocklebur; [3]
  Plant response rating, Cocklebur: 0
cocklebur; [4]
  Plant response rating, Cocklebur: 0
cocklebur; [5]
  Cocklebur plant response rating: 0
cocklebur; [6]
  Cocklebur plant response rating: 0
cocklebur; [7]
  Cocklebur plant response rating: 2
rice; [8]
  Rice plant response rating: 0
rice; [9]
  Rice plant response rating: 0
rice; [10]
  Plant response rating, Rice: 0
rice; [11]
  Rice plant response rating: 0
rice; [12]
  Plant response rating, Rice: 0
rice; [13]
  Rice plant response rating: 0
rice; Rate 1000 g/ha, Pre-emergence (as headed), scale 0 to 10
  Rice plant response rating: 0
rice; [14]
  Rice plant response rating: 0
Smallflower flatsedge; [8]
  S. Flatsedge plant response rating: 0
Smallflower flatsedge; Pre-emergence, Rate 1000 g/ha, scale 0 to 10 (0 no effect, 10 complete control)
  S. Flatsedge plant response rating: 0
Smallflower flatsedge; [9]
  S. Flatsedge plant response rating: 0
Smallflower flatsedge; [10]
  Plant response rating, S. Flatsedge: 0
Smallflower flatsedge; [11]
  S. Flatsedge plant response rating: 0
Smallflower flatsedge; [12]
  Plant response rating, S. Flatsedge: 0
Smallflower flatsedge; [13]
  S. Flatsedge plant response rating: 0
Smallflower flatsedge; [14]
  S. Flatsedge plant response rating: 0
Wild oat; [1]
  Wild oats plant response rating: 0
Wild oat; [15]
  Wild oats plant response rating: 9
Wild oat; [16]
  Wild oats plant response rating (0 to 10 scale): 9
Wild oat; [17]
  Plant response rating, Wild oats: 9
Wild oat; [5]
  Wild oats plant response rating: 9
Wild oat; [6]
  Wild oats plant response rating: 0
Wild oat; [18]
  Plant response rating, Wild oats: 3
Wild oat; [7]
  Wild oats plant response rating: 3
bedstraw; [19]
  Bedstraw plant response rating: 0
bedstraw; [2]
  Bedstraw plant response rating: 2
bedstraw; [15]
  Bedstraw plant response rating: 0
bedstraw; [3]
  Plant response rating, Bedstraw: 5
bedstraw; [4]
  Plant response rating, Bedstraw: 8
bedstraw; [5]
  Bedstraw plant response rating: 8
bedstraw; [20]
  Bedstraw plant response rating: 0
bedstraw; [7]
  Bedstraw plant response rating: 6
Sugar beet; [1]
  Sugarbeets plant response rating: 0
Sugar beet; [15]
  Sugarbeets plant response rating: 3
Sugar beet; [16]
  Sugarbeets plant response rating (0 to 10 scale): 3
Sugar beet; [17]
  Plant response rating, Sugarbeets: 4
Sugar beet; [5]
  Sugarbeets plant response rating: 8
Sugar beet; [6]
  Sugarbeets plant response rating: 0
Sugar beet; [18]
  Plant response rating, Sugarbeets: 2
Sugar beet; [7]
  Sugarbeets plant response rating: 2
wheat; [1]
  Wheat plant response rating: 0
wheat; [15]
  Wheat plant response rating: 0
wheat; [16]
  Wheat plant response rating (0 to 10 scale): 0
wheat; [17]
  Plant response rating, Wheat: 2
wheat; [5]
  Wheat plant response rating: 3
wheat; [6]
  Wheat plant response rating: 0
wheat; [18]
  Plant response rating, Wheat: 0
wheat; [7]
  Wheat plant response rating: 2
rape; [1]
  Rape plant response rating: 0
rape; [2]
  Rape plant response rating: 0
rape; [15]
  Rape plant response rating: 0
rape; [3]
  Plant response rating, Rape: 0
rape; [4]
  Plant response rating, Rape: 7
rape; [5]
  Rape plant response rating: 9
rape; [6]
  Rape plant response rating: 0
rape; [7]
  Rape plant response rating: 2
Surinam grass; [19]
  B. signalgrass plant response rating: 0
Surinam grass; [2]
  B. signalgrass plant response rating: 3
Surinam grass; [15]
  B. signalgrass plant response rating: 4
Surinam grass; [3]
  Plant response rating, B. signalgrass: 6
Surinam grass; [4]
  Plant response rating, B. signalgrass: 7
Surinam grass; [5]
  B. signalgrass plant response rating: 9
Surinam grass; [20]
  B. signalgrass plant response rating: 3
Surinam grass; Rate 500 g/ha, Postemergence, scale of 0 to 10 where 0 is no effect and 10 is complete control
  B. signalgrass plant response rating: 6
blackgrass; [1]
  Blackgrass plant response rating: 7
blackgrass; [2]
  Blackgrass plant response rating: 7
blackgrass; [15]
  Blackgrass plant response rating: 5
blackgrass; [3]
  Plant response rating, Blackgrass: 7
blackgrass; [4]
  Plant response rating, Blackgrass: 9
blackgrass; [5]
  Blackgrass plant response rating: 10
blackgrass; [6]
  Blackgrass plant response rating: 4
blackgrass; [7]
  Blackgrass plant response rating: 8
velvetleaf; [1]
  Velvetleaf plant response rating: 4
velvetleaf; [15]
  Velvetleaf plant response rating: 3
velvetleaf; [16]
  Velvetleaf plant response rating (0 to 10 scale): 4
velvetleaf; [17]
  Plant response rating, Velvetleaf: 4
velvetleaf; [5]
  Velvetleaf plant response rating: 5
velvetleaf; [6]
  Velvetleaf plant response rating: 2
velvetleaf; [18]
  Plant response rating, Velvetleaf: 4
velvetleaf; [7]
  Velvetleaf plant response rating: 5
morningglory; [1]
  Morningglory plant response rating: 3
morningglory; [2]
  Morningglory plant response rating: 3
morningglory; [15]
  Morningglory plant response rating: 0
morningglory; [3]
  Plant response rating, Morningglory: 0
morningglory; [4]
  Plant response rating, Morningglory: 0
morningglory; [5]
  Morningglory plant response rating: 0
morningglory; [6]
  Morningglory plant response rating: 0
morningglory; [7]
  Morningglory plant response rating: 3
pigweed; [1]
  Redroot pigweed plant response rating: 0
pigweed; [3]
  Plant response rating, Redroot pigweed: 3
pigweed; [4]
  Plant response rating, Redroot pigweed: 10
pigweed; [5]
  Redroot pigweed plant response rating: 10
pigweed; [6]
  Redroot pigweed plant response rating: 0
pigweed; [21]
  Plant response rating, Redroot pigweed: 0
pigweed; [7]
  Redroot pigweed plant response rating: 3
Giant foxtail; [1]
  Giant foxtail plant response rating: 7
Giant foxtail; [2]
  Giant foxtail plant response rating: 8
Giant foxtail; [15]
  Giant foxtail plant response rating: 10
Giant foxtail; [3]
  Plant response rating, Giant foxtail: 10
Giant foxtail; [4]
  Plant response rating, Giant foxtail: 10
Giant foxtail; [5]
  Giant foxtail plant response rating: 10
Giant foxtail; [6]
  Giant foxtail plant response rating: 5
Giant foxtail; [7]
  Giant foxtail plant response rating: 8
corn; [1]
  Corn plant response rating: 0
corn; [2]
  Corn plant response rating: 0
corn; [15]
  Corn plant response rating: 0
corn; [3]
  Plant response rating, Corn: 0
corn; [4]
  Plant response rating, Corn: 6
corn; [5]
  Corn plant response rating: 9
corn; [6]
  Corn plant response rating: 0
corn; [7]
  Corn plant response rating: 0
soybean; [1]
  Soybean plant response rating: 3
soybean; [15]
  Soybean plant response rating: 0
soybean; [3]
  Plant response rating, Soybean: 0
soybean; [4]
  Plant response rating, Soybean: 0
soybean; [5]
  Soybean plant response rating: 2
soybean; [6]
  Soybean plant response rating: 1
soybean; [21]
  Plant response rating, Soybean: 5
soybean; [7]
  Soybean plant response rating: 5
